Where two headings read alike, the source gives them in different places.

This is an account of results in patent US11648254B2 (Kumquat Biosciences Inc., priority 2021, dated 2023).

In experiment [1] the target is SOS1 (Homo sapiens (Human), UniProt Q07889). Nature of the experiment: Ras-SOS interaction assay (HTRF). The format is biochemical. An excerpt:
The ability of any compound of the present disclosure to reduce a Ras protein signaling output by, e.g., interfering or disrupting interaction (or binding) between SOS1 and a Ras protein can be assessed in vitro. For example, the equilibrium interaction of human SOS1 (hSOS1) with human wildtype Kras or K-Ras mutant (e.g., hK-Ras G12C mutant, or hK-RasG12C) can be assessed as a proxy or an indication for a subject compound's ability to inhibit SOS. Detection of such interaction is achieved by measuring homogenous time-resolved fluorescence resonance energy transfer (HTRF) from (i) a fluorescence resonance energy transfer (FRET) donor (e.g., antiGST-Europium) that is bound to GST-tagged K-RasG12C to (ii) a FRET acceptor (e.g., anti-6His-XL665) bound to a His-tagged hSOS1.
The assay buffer can contain 5 mM HEPES pH 7.4, 150 mM NaCl, 10 mM EDTA, 1 mM DTT, 0.05% BSA, 0.0025% (v/v) Igepal and 100 mM KF. A Ras working solution is prepared in assay buffer containing typically 10 nM of the protein construct (e.g., GST-tagged hK-RasG12C) and 2 nM of the FRET donor (e.g., antiGST-Eu(K) from Cisbio, France). A SOS1 working solution is prepared in assay buffer containing typically 10 nM of the protein construct (e.g., His-hSOS1) and 10 nM of the FRET acceptor (e.g., anti-6His-XL665 from Cisbio, France). An inhibitor control solution is prepared in assay buffer containing 10 nM of the FRET acceptor without the SOS1 protein.
A fixed reaction mixture with or without test compound is transferred into a 384-well plate. Ras working solution is added to all wells of the test plate. SOS1 working solution is added to all wells except for those that are subsequently filled the inhibitor control solution. After approximately 60 min incubation, the fluorescence is measured with a M1000Pro plate reader (Tecan) using HTRF detection (excitation 337 nm, emission 1: 620 nm, emission 2: 665 nm). Compounds are tested in duplicates at different concentrations (for example, 10 μM, 2.5 μM, 0.63 μM, 0.16 μM, 0.04 μM, 0.01 μM test compound). The ratiometric data (i.e., emission 2 divided by emission 1) is used to calculate IC50 values against SOS1 using GraphPad Prism (GraphPad software).
A general note: In TR-FRET formats the signal depends on donor and acceptor labels being close together.

For experiment [2], the system named is MIA PaCa-2 cells (K-Ras G12C). The experiment is described as follows: Ras-SOS cellular growth inhibition assay (CellTiter-Glo, 3D). The format is cell-based. On the procedure:
MIA PaCa-2 (ATCC CRL-1420) and NCI-H1792 (ATCC CRL-5895) cell lines comprise a G12C mutation can be used to assess Ras cellular signaling in vitro, e.g., in response to a subject compound of the present disclosure. […] Cell culture medium (comprising, for example, MIA PaCa-2 cells) is prepared with DMEM/Ham's F12 (e.g., with stable Glutamine, 10% FCS, and 2.5% Horse Serum. NCI-H1792 culture medium is prepared with RPMI 1640 (e.g., with stable Glutamine) and 10% FCS. A CellTiter-Glo (CTG) luminescent based assay (Promega) is used to assess growth of the cells, as a measurement of the ability of the compounds herein to inhibit Ras signaling in the cells. The cells (e.g., 800-1200 per well) are seeded in their respective culture medium in standard tissue culture-treated ultra-low attachment surface 96-well format plates (Corning Costar #3474). The day after plating, cells are treated with a dilution series (e.g., a 9 point 3-fold dilution series) of the compounds herein (e.g., approximately 125 μl final volume per well). Cell viability can be monitored (e.g., approximately 5 days later) according to the manufacturer's recommended instructions, where the CellTiter-Glo reagent is added (e.g., approximately 65 μl), vigorously mixed, covered, and placed on a plate shaker (e.g., approximately for 20 min) to ensure sufficient cell lysis prior to assessment of luminescent signal. The IC50 values are determined using the four-parameter fit. The resulting IC50 value is a measurement of the ability of the compounds herein to reduce cell growth of Ras-driven cells as representative tumor cells.
On the technique in general: ATP-based viability assays read luminescence as a measure of living cells.

The test system of experiment [3] is NCI-H1975 cells (EGFR T790M L858R). Nature of the experiment: EGFR-SOS cellular inhibition assay (CellTiter-Glo, 3D). The class given is cell-based.
Setting [4] is: K-RasG13D utilized, read-out: IC50 inhibition of SOS.
Setting [5] is: K-RasG13D, read-out: IC50 value against SOS1.
The mark [6] stands for this setting: Homo sapiens, MIA PaCa-2, 120 h, MIA PaCa-2, 3D proliferation, about 5 days, read-out: Bio-Cell-Prolif-3D (MiaPaca2 IC50).
The mark [7] stands for this setting: Homo sapiens, MIA PaCa-2, MIA PaCa-2, read-out: IC50 in inhibiting MIA PaCa-2 cell growth.
Where [8] appears, read: Homo sapiens, 120 h, NCI-H1975, 3D proliferation, about 5 days, read-out: Bio-Cell-Prolif-3D (H1975 IC50).
Where [9] appears, read: Homo sapiens, NCI-H1975, EGFR T790M L858R, read-out: IC50 in inhibiting growth of NCI-H1975 cell line.

Sequence of SOS1 (Q07889 564-1049): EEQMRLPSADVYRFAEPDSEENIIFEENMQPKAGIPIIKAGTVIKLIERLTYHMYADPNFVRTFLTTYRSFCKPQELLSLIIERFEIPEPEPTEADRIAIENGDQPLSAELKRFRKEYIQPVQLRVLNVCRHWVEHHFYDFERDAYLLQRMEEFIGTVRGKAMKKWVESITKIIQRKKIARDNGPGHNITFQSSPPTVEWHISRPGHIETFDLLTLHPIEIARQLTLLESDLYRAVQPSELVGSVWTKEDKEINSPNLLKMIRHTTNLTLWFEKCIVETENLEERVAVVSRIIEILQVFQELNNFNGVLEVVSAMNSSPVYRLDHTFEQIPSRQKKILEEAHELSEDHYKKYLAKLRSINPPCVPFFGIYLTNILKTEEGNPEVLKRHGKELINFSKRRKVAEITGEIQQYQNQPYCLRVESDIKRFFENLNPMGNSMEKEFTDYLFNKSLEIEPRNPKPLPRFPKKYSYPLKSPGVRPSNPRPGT

Take `COc1nc2nc(C)nc(N[C@H](C)c3cccc(C(F)(F)C4CCN(C(C)C)CC4)c3)c2cc1N1CCN(C(C)C)CC1` [Compound 418, (R)—N-(1-(3-(difluoro(1-isopropylpiperidin-4-yl)methyl)phenyl)ethyl)-6-(4-isopropylpiperazin-1-yl)-7-methoxy-2-methylpyrido[2,3-d]pyrimidin-4-amine]: the half-maximal inhibitory concentration (IC50) (in general, the concentration that inhibits the measured activity by half) in experiment [1] (setting [4]) was less than 100 nM; in experiment [1] (setting [5]) it was less than 50 nM; in experiment [2] (setting [6]), not above 1000 nM; in experiment [2] (setting [7]), less than 500 nM; in experiment [3] (setting [8]), not above 1000 nM; in experiment [3] (setting [9]) it was less than 500 nM.
With `Cc1nc(N[C@H](C)c2cccc(C(F)F)c2F)c2cc(N3CCS(=O)(=O)CC3)c(OC3COC3)nc2n1` [Compound 183, (R)-4-(4-((1-(3-(difluoromethyl)-2-fluorophenyl)ethyl)amino)-2-methyl-7-(oxetan-3-yloxy)pyrido[2,3-d]pyrimidin-6-yl)thiomorpholine 1,1-dioxide], the half-inhibitory concentration (IC50) is less than 100 nM in experiment [1] (setting [4]); less than 50 nM in experiment [1] (setting [5]); 1000 to 10000 nM in experiment [2] (setting [6]); not above 1000 nM in experiment [3] (setting [8]); less than 500 nM in experiment [3] (setting [9]).
Regarding `COc1nc2ncnc(N[C@H](C)c3cccc(C(F)(F)C4CN(C(C)C)C4)c3F)c2cc1C1CCS(=O)(=O)CC1` [Compound 283, (R)-4-(4-((1-(3-(difluoro(1-isopropylazetidin-3-yl)methyl)-2-fluorophenyl)ethyl)amino)-7-methoxypyrido[2,3-d]pyrimidin-6-yl)tetrahydro-2H-thiopyran-1,1-dioxide], the IC50 is less than 100 nM in experiment [1] (setting [4]); not above 1000 nM in experiment [2] (setting [6]); less than 500 nM in experiment [2] (setting [7]); not above 1000 nM in experiment [3] (setting [8]); less than 500 nM in experiment [3] (setting [9]).
`COc1nc2nc(C)nc(N[C@H](C)c3cccc(C(F)(F)C4CCN(C)CC4)c3F)c2cc1N1CCN(C(C)C)CC1` [Compound 182, (R)-N-(1-(3-(difluoro(1-methylpiperidin-4-yl)methyl)-2-fluorophenyl)ethyl)-6-(4-isopropylpiperazin-1-yl)-7-methoxy-2-methylpyrido[2,3-d]pyrimidin-4-amine]: the IC50 in experiment [2] (setting [6]) is not above 1000 nM; in experiment [2] (setting [7]), less than 500 nM; in experiment [3] (setting [8]), not above 1000 nM; in experiment [3] (setting [9]), less than 500 nM.
On to `COc1nc2nc(C)nc(N[C@H](C)c3cccc(C(F)(F)C4CCN(C(C)C)CC4)c3F)c2cc1C1(C#N)CC1` [Compound 377, (R)-1-(4-((1-(3-(difluoro(1-isopropylpiperidin-4-yl)methyl)-2-fluorophenyl)ethyl)amino)-7-methoxy-2-methylpyrido[2,3-d]pyrimidin-6-yl)cyclopropane-1-carbonitrile], for which the IC50 was not above 1000 nM in experiment [2] (setting [6]), less than 500 nM in experiment [2] (setting [7]), not above 1000 nM in experiment [3] (setting [8]) and less than 500 nM in experiment [3] (setting [9]).
For “(R)-4-(4-((1-(3-(2-(2-(dimethylamino)ethoxy)-1,1-difluoroethyl)-2-fluorophenyl)ethyl)amino)-7-methoxy-2-methylpyrido[2,3-d]pyrimidin-6-yl)tetrahydro-2H-thiopyran 1,1-dioxide [Compound 271]”, the IC50 was not above 1000 nM in experiment [2] (MIA PaCa-2, 3D proliferation, about 5 days, read-out: Bio-Cell-Prolif-3D (MiaPaca2 IC50)); less than 500 nM in experiment [2] (MIA PaCa-2, read-out: IC50 in inhibiting MIA PaCa-2 cell growth); not above 1000 nM in experiment [3] (NCI-H1975, 3D proliferation, about 5 days, read-out: Bio-Cell-Prolif-3D (H1975 IC50)); less than 500 nM in experiment [3] (NCI-H1975, EGFR T790M L858R, read-out: IC50 in inhibiting growth of NCI-H1975 cell line).
On to `COc1nc2nc(C)nc(N[C@H](C)c3cccc(C(F)(F)F)c3C)c2cc1C1CCN(C)CC1` [Compound 380, (R)-7-methoxy-2-methyl-N-(1-(2-methyl-3-(trifluoromethyl)phenyl)ethyl)-6-(1-methylpiperidin-4-yl)pyrido[2,3-d] pyrimidin-4-amine], for which the IC50 in experiment [1] (setting [4]) was less than 100 nM; in experiment [1] (setting [5]), less than 50 nM; in experiment [2] (setting [7]) it was less than 500 nM.
In the case of `COc1nc2nc(C)nc(N[C@H](C)c3cccc(C)c3F)c2cc1[C@H]1C[C@@H](N)C1` [Compound 111, 6-((1s,3S)-3-aminocyclobutyl)-N-((R)-1-(2-fluoro-3-methylphenyl)ethyl)-7-methoxy-2-methylpyrido[2,3-d]pyrimidin-4-amine], the IC50 in experiment [1] (setting [4]) was 100 to 1000 nM.
For the compound `COc1nc2nc(C)nc(N[C@H](C)c3cccc(C(F)F)c3F)c2cc1C1CCNCC1` [Compound 121, (R)—N-(1-(3-(difluoromethyl)-2-fluorophenyl)ethyl)-7-methoxy-2-methyl-6-(piperidin-4-yl)pyrido[2,3-d]pyrimidin-4-amine], the IC50 in experiment [1] (setting [4]) is less than 100 nM; in experiment [1] (setting [5]) it was less than 50 nM.
For the compound `COc1nc2nc(C)nc(N[C@H](C)c3cccc(C(F)(F)F)c3F)c2cc1C1(C#N)CCN(C(C)C)CC1` [Compound 306, (R)-4-(4-((1-(2-fluoro-3-(trifluoromethyl)phenyl)ethyl)amino)-7-methoxy-2-methylpyrido[2,3-d]pyrimidin-6-yl)-1-isopropylpiperidine-4-carbonitrile], the IC50 in experiment [1] (setting [4]) is 100 to 1000 nM.
Take `Cc1nc(N[C@H](C)c2cccc(C(F)F)c2F)c2cc(C3CCN(C)CC3)c(OC3COC3)nc2n1` [Compound 246, (R)-N-(1-(3-(difluoromethyl)-2-fluorophenyl)ethyl)-2-methyl-6-(1-methylpiperidin-4-yl)-7-(oxetan-3-yloxy)pyrido[2,3-d]pyrimidin-4-amine]: the IC50 in experiment [1] (setting [4]) was less than 100 nM; in experiment [1] (setting [5]) it was less than 50 nM.
On to `Cc1nc(N[C@H](C)c2cccc(C(F)F)c2F)c2cc(N3CCN(C(C)C)CC3)c(NC3CNC3)nc2n1` [Compound 357, (R)-N7-(azetidin-3-yl)-N4-(1-(3-(difluoromethyl)-2-fluorophenyl)ethyl)-6-(4-isopropylpiperazin-1-yl)-2-methylpyrido[2,3-d]pyrimidine-4,7-diamine], for which the concentration for half-maximal inhibition (IC50) in experiment [1] (setting [4]) is less than 100 nM; in experiment [1] (setting [5]), less than 50 nM.
`Cc1nc(N[C@H](C)c2cccc(C(F)F)c2F)c2cc(C3CCN(C)CC3)c(OCCN(C)C)nc2n1` [Compound 155]: the IC50 in experiment [2] (setting [6]) and in experiment [3] (setting [8]) was not above 1000 nM throughout.
`COc1nc2ncnc(N[C@H](C)c3cccc(C(F)(F)F)c3C)c2cc1C1CCN(C)CC1` [Compound 282, (R)-7-methoxy-N-(1-(2-methyl-3-(trifluoromethyl)phenyl)ethyl)-6-(1-methylpiperidin-4-yl)pyrido[2,3-d] pyrimidin-4-amine]: in experiment [1] (setting [4]), the concentration for half-maximal inhibition (IC50) lay in the range of 100 to 1000 nM.
